Patent US11666645B2, “CD200 inhibitors and methods of use thereof” (REGENTS OF THE UNIVERSITY OF MINNESOTA, priority 2015, dated 2023)
“Also recorded” adds a separate entry of the source.

What was measured:
[1] = system: splenocytes + OT-1 T cells; test: Splenocytes pulsed with OVA + inhibitor, OT-1 T cells added, cytokine production by flow cytometric bead array; assay type: cell-based, mouse; conditions: splenocytes pulsed 24 hours with OVA+inhibitor, 48 hours with OT-1 T cells
Procedure: FIGS. 11A-11B. Splenocytes were pulsed with OVA+an inhibitor peptide and incubated for 24 h. Following incubation, cells were washed, purified OT1 were added to wells and incubated for an additional 48 hours then analyzed for FIG. 11A) TNFa and IL-6 production; and FIG. 11B) IL-2 and IL-17 production. Error bars indicate +/−SEM (n=4/group; *P<0.05; ** P<0.01).
We hypothesize that the two different human CD200 inhibitor peptides (peptide 1=hP1 & peptide 2=hP2, table 2) are hitting different activation receptors on dendritic cells, although only one has been identified. […] We want to generate the immune response most beneficial for our patients. These conclusions were supported by experiments where splenocytes were pulsed with OVA+selected CD200 inhibitors (6061, 6069, 4004, 4006, 4013) for 24 hours. The splenocytes were then washed and cultured for 48 hours with the addition of OT-1 T cells. The cultures were then assessed for cytokine production using a flow cytometric bead array.

[2] = system: Human immature dendritic cells; test: Human immature dendritic cells pulsed with P1 peptide or alanine-substituted versions, cytokine production; assay type: cell-based; conditions: human CD11b-derived immature dendritic cells (GM-CSF, IL4), supernatants
Procedure: FIGS. 13A-13B. Human CD11b cells were isolated. Purified CD11b cells were differentiated to immature dendritic cells using GM-CSF and IL4. Cells were pulsed with P1, P2, P3 and P4 CD200 inhibitors (see Table 2). Supernatants were analyzed for FIG. 13A) cytokine or FIG. 13B) chemokine production.
FIG. 16. Human CD11b cells were isolated and the purified CD11b cells were differentiated to immature dendritic cells using GM-CSF and IL4. Cells were pulsed with human P1 peptide, or a mutated version thereof comprising an alanine substitution (denoted by P1 and the amino acid substitution and position; e.g., P1A1, P1A2, P1A3, P1A4, P1A5, P1A6, etc.) (see, Table 2). Supernatants were analyzed for cytokine production.

PPIA = PPIA production in monocytes with CD200 inhibitor; assay type: cell-based; conditions: peptide binds the CD200 activating receptor
Description: FIGS. 18A-18E. Experimental Model. CD200 is solubilized from the tumor or endothelial interacting on its receptor (CD200R). This CD200/CD200R interaction induces the upregulation of PPIA through the MYC pathway decreasing TNF alpha and IL2 production needed for an immune response (FIG. 18A).
These antagonist have been reported to reverse the differentiation to as myeloid-derived suppressor cells following interaction with soluble CD200 (FIG. 18C) (Moertel et al., J Immunother Can; 2(1):46) and in vivo (FIG. 23). The mechanism of […] protein inhibition has been determined through the upregulation of an immunosuppressive protein PPIA (FIGS. 18A-18E) which is inhabited with the use of the CD200 inhibitor P1A12.

tumor bearing mice [3] = test: Prime-boost OVA vaccination of tumor bearing mice, SIINFEKL specific CD8+ T cell expansion by flow cytometry; assay type: in vivo, mouse; conditions: tumor bearing mice vaccinated with OVA+Poly:ICLC +/- inhibitor, whole blood
Procedure: FIGS. 3A-3B. FIG. 3A) Vaccination scheme. FIG. 3B) Tumor bearing or non-tumor bearing mice were vaccinated on day 2 and 8 with an agonist (4012) or CD200 inhibitor (6059) only, and on days 3-6 and […] with OVA+Poly:ICLC +/− the agonist (4012) or CD200 inhibitor (6059). B) Mice were bled on day 10, whole blood was stained with an anti-CD8 and SIINFEKL specific detramer (SEQ ID NO: 18), lysed and analyzed by flow cytometry.
(§1) FIGS. 12A-12C. CD200 inhibitor reverses the suppressive effects of the tumor environment. Tumor and non-tumor bearing mice were vaccinated with OVA+Poly:ICLC +/− the CD200 inhibitor 6059 and analyzed for FIG. 12A) SIINFEKL/Kb^+CD8^+ T cell expansion (“SIINFEKL” disclosed as SEQ ID NO: 18). FIG. 12B) Lymphocytes were harvested and stimulated with SIINFEKL peptide (SEQ ID NO: 18). Supernatants were analyzed for TNFα and IFNγ secretion. FIG. 12C) The CD200 inhibitor 6059 was added to OVA+exosomes. Error bars indicate +/−SEM (n=4/group; *P<0.05; by t-test).
(§2) These experiments support the hypothesis that exosomes express the CD200 protein thereby inhibiting the ability to prime a T cell response in the draining lymph nodes of glioma bearing mice. Other CD200 inhibitors were similarly evaluated (FIGS. 3A-3B, 9A-9B and 24A-24B).

tumor bearing mice [4] = test: Recall response: lymphocytes of vaccinated tumor bearing mice restimulated with OVA/SIINFEKL, cytokine release; assay type: in vivo, mouse; conditions: lymphocytes from cervical lymph nodes of vaccinated tumor bearing mice restimulated, supernatant after 48 hrs
Description: FIGS. 4A-4B. Tumor bearing or non-tumor bearing mice were vaccinated on day 2 and 8 with an agonist or CD200 inhibitor only, and on days 3-6 and 10 with OVA+Poly:ICLC +/− the CD200 inhibitor 6059. On day 10, were harvested and stimulated with OVA protein to measure a recall response via cytokine release. FIG. 4A) TNF alpha (PG/ML) levels from tumor bearing mice. FIG. 4B) IFN gamma (PG/ML) levels in tumor bearing mice.
as §1, §2

glioma-derived exosomes = test: Vaccination of non-tumor bearing mice with OVA + glioma-derived exosomes +/- inhibitor; assay type: in vivo, mouse; conditions: OVA+glioma-derived exosomes+antagonist
Procedure: as §1, §2

GL261 tumor bearing mice [5] = test: GL261 glioma model, inhibitor inoculated into the tumor site in the brain, then tumor lysate + inhibitor; assay type: in vivo, mouse; conditions: 10 μg inhibitor in the brain at tumor coordinates on day 2, then weekly tumor lysate + inhibitor
Procedure: Tumor-bearing mice were inoculated in the brain with 10 μg of the inhibitor 6059 at the same coordinates at which the tumor was injected two days previously. This was followed by weekly injections of tumor lysate+inhibitor (FIGS. 5A-5B).

GL261 tumor bearing mice [6] = test: GL261 glioma model, vaccination with tumor lysate +/- CD200 inhibitor, tumor growth and survival
Procedure: FIG. 5B) Mice were imaged weekly for tumor growth. The following groups were studied: saline (1), tumor lysate (2), and tumor lysate+CD200 inhibitor (6059) (3). FIG. 5C) Percent survival post inoculation for saline (1), tumor lysate (2), and tumor lysate+CD200 inhibitor (3) groups.
In vivo survival study. […] All vaccinations were administered in the back of the neck in tumor bearing mice.

SQKVSGTACLTLY [Inhibitor 4006, P3 in b288]
Cytokine profile (TNFa, IL-6, IL-2, IL-17) [1]: different cytokine profiles

SQKVSATACLTLY [hP1A6]
Cytokine production (response) vs human P1 peptide [2]: enhanced TNF-α and IL-β production | Cytokine production (response) vs human P1 peptide ([2]; listed as P1A6): significantly enhanced response

VTWQKKKAVSPAN [Inhibitor P1A12, P1 in b288]
Production of PPIA (PPIA): inhibits the production of PPIA

TASLRCSLKTSQE [Inhibitor 4004]
Cytokine profile (TNFa, IL-6, IL-2, IL-17) [1]: different cytokine profiles

NTIGDGGCY [Inhibitor 6059]
SIINFEKL specific CD8+ T cell expansion: effect on tumor induced suppression (tumor bearing mice [3]): reversed tumor induced suppression; also recorded: reversed the suppressive effects of the tumor microenvironment; also recorded: reversed the suppressive effects in tumor-bearing mice | Recall response via cytokine release (TNF alpha, IFN gamma): effect on tumor induced suppression (tumor bearing mice [4]): modulate/reverse glioma-induced suppression; also recorded: reversed the suppressive effects of the tumor microenvironment | Suppression induced by exosomes (glioma-derived exosomes): partially reversed the suppression induced by exosomes | Tumor growth after inhibitor into the tumor site in the CNS (GL261 tumor bearing mice [5]): Tumor growth was delayed | Survival benefit (GL261 tumor bearing mice [6]; GL261 mice vaccinated weekly with tumor lysates + inhibitor vs saline or tumor lysates): increased survival benefit | Tumor growth (GL261 tumor bearing mice [6]; GL261 mice, tumor lysate (65 μg) + inhibitor (50 μg), imaged weekly, vs saline or tumor lysate): slowed tumor growth | Enhancement of survival (GL261 tumor bearing mice [6]; GL261 mice, tumor lysate (65 μg) + inhibitor (50 μg), vs saline or tumor lysate): 30%
